Like-named read-outs stand apart in the source and are kept apart here.
Key:
[1] = molecular target: T1, biotinylated AVI-tagged EED (76-441) (Homo sapiens, UniProt O75530); experiment: EED binding SPR assay; details: 1:1 binding model; read-out: KD, equilibrium dissociation constant as measured by surface plasmon resonance (SPR)
T1 construct: GST (N, cleaved yes); made in house; host or cells: E. coli BL21(DE3), co-expressed with pGro7
Method: Biotinylated AVI-tagged EED was produced using standard molecular biology techniques. A pGEX plasmid with a GST-preScission-cleavage-site-AVI-EED(76-441) sequence was placed into E. coli BL21(DE3) cells and co-expressed with pGro7. The E. coli were grown in shaker flasks in LB with ampicillin at 37° C. at 110 rpm to an OD600=0.7. At this time the temperature was lowered to 15° C. and IPTG was added to 0.3 mM. The cells were allowed to express overnight. Cells were then harvested.
For purification, the E. coli cell pellet was lysed into a buffer of 50 mM Tris pH 8.0, 500 mM NaCl, 5% glycerol and 5 mM DTT. The lysate was loaded onto a GSTrap FF column from GE Healthcare. After washing, the bound protein was eluted with 50 mM Tris pH 8.0, 500 mM NaCl, 5% glycerol, 5 mM DTT and 15 mM GSH. The collected fractions were combined and incubated with PreScission enzyme overnight at 4° C. The cleaved protein was then passed through a GSTrap FF column in a buffer of 50 mM Tris pH 8.0, 500 mM NaCl, 5% glycerol and 5 mM DTT. The cleaved protein was confirmed through mass spectrometry. The AVI-EED(76-441) was then buffer exchanged into 50 mM Bicine pH 8.3, 10 mM ATP, 10 mM magnesium acetate and 50 μM D-Biotin. 3 mg of BirA enzyme was added to the system and incubated at 4° C. for 2 hours to biotinylate the AVI-EED(76-441). The biotinylated-AVI-EED(76-441) was then buffer exchanged into 20 mM Tris pH 8.0 and 400 mM NaCl and passed through a size exclusion column of Superdex 200 16/60 Increase. The purified monomeric biotinylated-AVI-EED(76-441) was confirmed through SDS-PAGE, LC-MS and analytical size exclusion chromatography.
All surface plasmon resonance (SPR) assays were performed using a GE Biacore S200 utilizing GE Biotin CAPture chips. Capturing of CAP reagents was performed with a flow rate of 2 μL/min for 90 seconds. For protein capturing, a solution of 50 μg/mL of biotinylated AVI-tagged EED (76-441) in 10 mM HEPES pH 7.4, 150 mM NaCl, 0.05% Tween 20 and 2% DMSO (Running Buffer) was flowed over the chip with a flow rate of 5 μL/min for a contact time of 30 seconds. Final readings were 2200-2400 RU. For compounds, 7 concentrations were made with 3-dilutions using the Running Buffer for a total of 300 μL of each concentration in a 96-well microplate. During the binding experiments, a flow rate of […] was used for an association time of 90 seconds followed by a disassociation time of 180 seconds. The compartment temperature was set at 10° C. with the chip at 25° C. During regeneration the flow rate was set to 30 μL/min for 30 seconds. All fittings were done using a 1:1 binding model.

[2] = system: human P-glycoprotein HEK cells (HEK-P-gp); experiment: H3K27me3 immunocytochemistry assay in P-gp expressing HEK293T cells, with or without elacridar; type: cell-based; details: Homo sapiens, 4 days compound treatment
Method: A plasmid encoding the human ABCB1 gene under the control of a CMV promoter was purchased from Origene (Cat #RC216080). The HEK293T cells were purchased from ATCC (Cat #CRL-3216) and were cultured for expansion in the recommended conditions. The HEK293T cells were transfected with 2 ug of the pCMV-ABCB1 plasmid using Lipofectamine 3000 following recommendations from the manufacturer (ThermoFisher Scientific, Cat #L3000008). After 24 h, cells were dissociated, and 5000 cells were seeded on a 10 cm tissue culture dish. On the next day, fresh media containing 5 nM Vinblastine (Sigma, Cat #V1377) was added, and media containing compound was replenished every 72 h. After surviving cells reached confluency, cells were passaged, and lines were maintained in the presence of 2.5 nM Vinblastine until further characterization.
P-gp expressing HEK293T, HUDEP2, and Human Mobilized Peripheral Blood Primary CD34+ cells were cultured for use in an H3K27me3 immunocytochemistry assay. HUDEP2 and Human Mobilized Peripheral Blood Primary CD34+ cells were cultured for use in an HbF immunocytochemistry assay. P-gp expressing HEK293T cells were maintained and passaged every 3-4 days by plating 300,000 viable cells in a T-25 culture flask containing 6 mLs of 293 Passaging Media comprised of DMEM (ThermoFisher #10566016), 10% fetal bovine serum (ThermoFisher #A3160502), 1% penicillin-streptomycin (ThermoFisher #15140122), and 2.5 nM Vinblastine (Sigma #V1377). To evaluate the inhibitory effect of the compounds of the present disclosure and their brain penetrant properties via P-gp mediated efflux, the H3K27me3 immunocytochemistry assay was conducted in the presence or absence of 250 nM of the P-gp inhibitor, elacridar. Poor brain penetrant compounds were expected to show higher potencies in the presence of Elacridar. However, brain penetrant compounds would show similar potencies irrespective of whether Elacridar is present or not. In these experiments plates without elacridar were seeded with P-gp expressing HEK293T cells at 1000 viable cells per well in a poly-d-lysine coated 384-well plate (Corning Cat #356697) in 45 μL of 293 Assay Media comprised of DMEM (ThermoFisher #10566016), 10% fetal bovine serum (ThermoFisher #A3160502), 1% penicillin-streptomycin (ThermoFisher #15140122). A replicate set of plates were seeded under the same conditions with 45 μL of 293 Assay Media supplemented with 250 nM of Elacridar to inhibit P-gp activity. Compounds were serially diluted at 10× concentration in 293 Media, and 5 μL transferred to their respective wells on both sets of plates for a total volume of 50 μL per well. The compound treated HEK293T cells were allowed to incubate for 4 days at 37° C., 85% relative humidity, and 5% CO2 before proceeding to ICC Fix and Stain protocol.
The Fix and Stain Protocol was the same for HEK293T, HUDEP2, and Primary CD34+ cell assays except the specific primary and secondary antibodies used for detection. Following 4 days of compound treatment, the respective plates were washed once with 25 μL of PBS (ThermoFisher #10010023) and fixed with 25 μL of 4% paraformaldehyde (ThermoFisher #28908) for 10 minutes at room temperature. The plates were then washed three times with 25 μL of PBS. Subsequent to that, the cells were permeabilized and blocked for 1 hour at room temperature in 25 μL of Perm/Block buffer comprised of IX PBS, 1% bovine serum albumin (ThermoFisher #A3294), 10% fetal bovine serum (ThermoFisher #A3160502), 0.3M glycine (Sigma #G7126), and 0.1% tween-20 (Sigma #P7949). This was followed by additional washing (three times) of the plates with 25 μL of 0.1% tween in PBS.
For the H3K27me3 assay, the cells were incubated overnight at 4° C. with 25 μL of H3K27me3 Primary Antibody (Cell Signaling #9733) diluted 1:200 in 0.1% tween-20 in PBS. […]

[3] = HEK293, 96 h, without elacridar, read-out: IC50, inhibitory activity on human P-glycoprotein HEK cells (HEK-P-gp)
[4] = HEK293, with 250 nM elacridar, read-out: IC50, inhibitory activity on human P-glycoprotein HEK cells (HEK-P-gp) pretreated with elacridar

T1 sequence (O75530 76-441 limits assumed): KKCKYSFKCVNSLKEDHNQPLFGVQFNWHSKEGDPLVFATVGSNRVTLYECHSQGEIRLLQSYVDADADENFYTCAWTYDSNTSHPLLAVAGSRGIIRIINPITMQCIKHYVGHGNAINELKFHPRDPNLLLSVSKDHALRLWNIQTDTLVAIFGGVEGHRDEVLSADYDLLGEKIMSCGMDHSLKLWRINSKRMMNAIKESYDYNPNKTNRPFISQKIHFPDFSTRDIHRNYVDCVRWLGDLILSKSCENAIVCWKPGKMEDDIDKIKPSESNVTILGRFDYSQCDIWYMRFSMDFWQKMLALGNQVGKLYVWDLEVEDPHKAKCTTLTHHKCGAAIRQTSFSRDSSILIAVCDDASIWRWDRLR

Compound | Kd [1] | IC50 [2, 3] | IC50 [2, 4]
COc1cccnc1-c1cc2c(n3cnnc13)NCc1c(F)ccc3c1[C@@H](CO3)CO2 [Compound 159, (S)-12-fluoro-4-(3-methoxypyridin-2-yl)-7a,8,13,14-tetrahydro-7H-[1,2,4]triazolo[4′,3′:1,6]pyrido[3,2-b]benzofuro[4,3-fg][1,4]oxazonine] | 10 to 50 nM | > 500 nM | > 500 nM
COc1nc(C)ccc1-c1cc2c(n3cnnc13)NCc1c(F)ccc3c1[C@H](CO3)CO2 [Example 105] | 5 to 10 nM | 100 to 500 nM | 100 to 500 nM
Cc1cncnc1-c1cc2c(n3cnnc13)NCc1c(F)ccc3c1[C@@H](CO3)CO2 [Compound 162, (S)-12-fluoro-4-(5-methylpyrimidin-4-yl)-7a,8,13,14-tetrahydro-7H-[1,2,4]triazolo[4′,3′:1,6]pyrido[3,2-b]benzofuro[4,3-fg][1,4]oxazonine] | 2.5 to 5 nM | 25 to 50 nM | 50 to 100 nM
Fc1ccc2c3c1CNc1c(cc(-c4ccc(C(F)(F)F)nc4)c4nncn14)OC[C@H]3CO2 [Example 112] | 2.5 to 5 nM | 100 to 500 nM | 100 to 500 nM
Cc1nc(C2CC2)ncc1-c1cc2c(n3cnnc13)NCc1c(F)ccc3c1[C@@H](CO3)CO2 [Compound 190, (S)-4-(2-cyclopropyl-4-methylpyrimidin-5-yl)-12-fluoro-7a,8,13,14-tetrahydro-7H-[1,2,4]triazolo[4′,3′:1,6]pyrido[3,2-b]benzofuro[4,3-fg][1,4]oxazonine] | < 2.5 nM | < 25 nM | < 25 nM
CN1CCN(c2ncc(-c3cc4c(n5cnnc35)NCc3c(F)ccc5c3[C@H](CO5)CO4)cn2)CC1 [Example 118] | < 2.5 nM | 100 to 500 nM | 50 to 100 nM
Fc1ccc2c3c1CNc1c(cc(-c4ccc(C(F)(F)F)cn4)c4nncn14)OCC3CO2 (stereo not drawn) [Example 113] | 10 to 50 nM | > 500 nM | > 500 nM
Fc1ccc2c3c1CNc1c(cc(-c4cnn5c4CCC5)c4nncn14)OC[C@@H]3CO2 [Compound 171, (S)-4-(5,6-dihydro-4H-pyrrolo[1,2-b]pyrazol-3-yl)-12-fluoro-7a,8,13,14-tetrahydro-7H-[1,2,4]triazolo[4',3':1,6]pyrido[3,2-b]benzofuro [4,3-fg][1,4] oxanzonine] | < 2.5 nM | > 500 nM | > 500 nM
CNC(=O)CCc1ccc(-c2cc3c(n4cnnc24)NCc2c(F)ccc4c2C(CO4)CO3)c(C)n1 [Compound 191, (S)-3-(5-(12-fluoro-7a,8,13,14-tetrahydro-7H-[1,2,4]triazolo[4′,3′:1,6]pyrido[3,2-b]benzofuro[4,3-fg][1,4]oxazonin-4-yl)-6-methylpyridin-2-yl)-N-methylpropanamide] | < 2.5 nM | 50 to 100 nM | 100 to 500 nM
Cc1ncc(O)cc1-c1cc2c(n3cnnc13)NCc1c(F)ccc3c1[C@@H](CO3)CO2 [Compound 194, (S)-5-(12-fluoro-7a,8,13,14-tetrahydro-7H-[1,2,4]triazolo[4′,3′:1,6]pyrido[3,2-b]benzofuro[4,3-fg][1,4]oxazonin-4-yl)-6-methylpyridin-3-ol] | < 2.5 nM | 50 to 100 nM | 50 to 100 nM
COc1ncc(F)cc1-c1cc2c(n3cnnc13)NCc1c(F)ccc3c1[C@H](CO3)CO2 [Example 111] | 2.5 to 5 nM | 100 to 500 nM | 100 to 500 nM

Second part, led by results:

Kd [1] | Compound | IC50 [2, 3] | IC50 [2, 4]
< 2.5 nM | CC(=O)N1CC=C(c2cc3c(n4cnnc24)NCc2c(F)ccc4c2[C@@H](CO4)CO3)CC1 [Compound 193, (S)-1-(4-(12-fluoro-7a,8,13,14-tetrahydro-7H-[1,2,4]triazolo[4′,3′:1,6]pyrido[3,2-b]benzofuro[4,3-fg][1,4]oxazonin-4-yl)-3,6-dihydropyridin-1(2H)-yl)ethan-1-one] | 25 to 50 nM | 50 to 100 nM
< 2.5 nM | Cc1cc(-c2cc3c(n4cnnc24)NCc2c(F)ccc4c2[C@H](CO4)CO3)cnn1 [Example 123] | > 500 nM | > 500 nM
< 2.5 nM | Fc1ccc2c3c1CNc1c(cc(-c4ccc(N5CCOCC5)nc4)c4nncn14)OC[C@H]3CO2 [Example 116] | > 500 nM | 100 to 500 nM
< 2.5 nM | CCOc1ncc(-c2cc3c(n4cnnc24)NCc2c(F)ccc4c2[C@H](CO4)CO3)cn1 [Example 109] | 100 to 500 nM | 100 to 500 nM
< 2.5 nM | Cc1nc(O)ccc1-c1cc2c(n3cnnc13)NCc1c(F)ccc3c1[C@@H](CO3)CO2 [Compound 187, (S)-5-(12-fluoro-7a,8,13,14-tetrahydro-7H-[1,2,4]triazolo[4′,3′:1,6]pyrido[3,2-b]benzofuro[4,3-fg][1,4]oxazonin-4-yl)-6-methylpyridin-2-ol] | > 500 nM | > 500 nM
< 2.5 nM | CN1CCN(c2ccc(-c3cc4c(n5cnnc35)NCc3c(F)ccc5c3[C@H](CO5)CO4)cn2)CC1 [Example 117] | 100 to 500 nM | 50 to 100 nM
